Experiments:
serotonin (5-HT) uptake = target: T1, serotonin (5-HT) uptake (Rattus norvegicus, UniProt P31652); experiment: Serotonin (5-HT) uptake inhibitory activity in rat brain synaptosome; type: biochemical; settings: rat frontal cortex synaptosome, tritium-labeled 5-HT 8 nM; read-out: IC50 (nM), serotonin (5-HT) uptake inhibition
T1 construct: used as crude synaptosomal fraction; from tissue; host or cells: rat frontal cortex, crude synaptosomal fraction
Protocol: (§1) Male Wistar rats were decapitated, each brain was removed, and the frontal cortex was cut out. […] The homogenate was centrifuged at 1000 g at 4° C. for 10 minutes, and the supernatant was further centrifuged at 20000 g at 4° C. for 20 minutes. The pellet was suspended in an incubation buffer (20 mM Hepes buffer (pH 7.4) containing 10 mM glucose, 145 mM sodium chloride, 4.5 mM potassium chloride, 1.2 mM magnesium chloride and 1.5 mM calcium chloride) and used as crude synaptosomal fraction.
(§2) Each well of a 96-well round-bottom plate was used for the uptake reaction in a total volume of 200 μL solution containing purgurin (final concentration 10 μM) and ascorbic acid (final concentration 0.2 mg/mL). In other words, solvent, unlabeled 5-HT or step-diluted test compound was added to each well, and one-tenth of the final volume of the synaptosomal fraction was added to each well, followed by pre-incubation at 37° C. for 10 minutes, and then tritium-labeled 5-HT solution (final concentration 8 nM) was added and the uptake reaction was initiated at 37° C. After 10 minutes, the uptake reaction was terminated by suction filtration onto a 96-well glass fiber filter plate. The filters were rinsed with cold physi-ological saline solution, dried thoroughly, and micro scintillation 0 (Perkin-Elmer) was added thereto. Then, the residual radioactivity on the filters was measured.
The uptake value when only solvent was added was set as 100%, the uptake value when unlabeled 5-HT (final concentration 10 μM) was added as 0% (nonspecific uptake value), and the 50% inhibitory concentration was calculated from the concentration of the test compound and its inhibitory activity.

dopamine (DA) uptake = target: T2, dopamine (DA) uptake (Rattus norvegicus, UniProt P23977); experiment: Dopamine (DA) uptake inhibitory activity using rat brain synaptosome; type: biochemical; settings: rat striatum synaptosome, tritium-labeled DA 2 nM; read-out: IC50 (nM), dopamine (DA) uptake inhibition
T2 construct: used as crude synaptosomal fraction; from tissue; host or cells: rat striatum, crude synaptosomal fraction
T2 sequence (P23977 whole entry): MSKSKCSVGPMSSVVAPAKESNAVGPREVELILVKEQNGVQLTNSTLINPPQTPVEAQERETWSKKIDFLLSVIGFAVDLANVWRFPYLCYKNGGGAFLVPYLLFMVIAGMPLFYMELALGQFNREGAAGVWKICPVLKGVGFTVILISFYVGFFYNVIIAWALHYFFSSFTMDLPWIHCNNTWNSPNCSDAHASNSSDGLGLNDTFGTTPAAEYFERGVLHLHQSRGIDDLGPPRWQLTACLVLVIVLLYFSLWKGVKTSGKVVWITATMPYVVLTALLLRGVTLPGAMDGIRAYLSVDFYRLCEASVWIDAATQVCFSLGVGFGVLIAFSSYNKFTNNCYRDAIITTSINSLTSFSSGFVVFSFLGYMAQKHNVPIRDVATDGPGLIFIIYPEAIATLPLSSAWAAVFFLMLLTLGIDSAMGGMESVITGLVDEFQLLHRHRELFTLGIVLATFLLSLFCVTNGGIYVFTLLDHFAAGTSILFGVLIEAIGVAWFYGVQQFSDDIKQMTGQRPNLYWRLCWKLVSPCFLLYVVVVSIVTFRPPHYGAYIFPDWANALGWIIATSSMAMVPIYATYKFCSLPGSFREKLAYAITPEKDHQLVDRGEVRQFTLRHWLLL
Protocol: as §1, with “striatum” for “frontal cortex”
as §2, with “μl” for “μL”, “DA” for “5-HT”, “2” for “8”
The uptake value when only solvent was added was set as 100%, the uptake value when unlabeled DA (final concentration 10 μM) was added as 0% (nonspecific uptake value), and the 50% inhibitory concentration was calculated from the concentration of the test compound and its inhibitory activity.

CYP2C9 = target: T3, CYP2C9 (Homo sapiens, UniProt P11712); experiment: CYP inhibition test (1): inhibition rate (%) at one concentration, CYP2C9; type: in vitro ADME; settings: human liver microsomes, pH 7.4, probe diclofenac (0.005 mmol/L); test compound 0.01 mmol/L, human liver microsome 0.1 mg/mL, substrate diclofenac, 37° C. 10 minutes; read-out: inhibition rate (%) 2C9
T3 construct: a human liver microsome solution containing three CYP-specific substrates; from tissue; host or cells: human liver microsomes
T3 sequence (P11712 whole entry): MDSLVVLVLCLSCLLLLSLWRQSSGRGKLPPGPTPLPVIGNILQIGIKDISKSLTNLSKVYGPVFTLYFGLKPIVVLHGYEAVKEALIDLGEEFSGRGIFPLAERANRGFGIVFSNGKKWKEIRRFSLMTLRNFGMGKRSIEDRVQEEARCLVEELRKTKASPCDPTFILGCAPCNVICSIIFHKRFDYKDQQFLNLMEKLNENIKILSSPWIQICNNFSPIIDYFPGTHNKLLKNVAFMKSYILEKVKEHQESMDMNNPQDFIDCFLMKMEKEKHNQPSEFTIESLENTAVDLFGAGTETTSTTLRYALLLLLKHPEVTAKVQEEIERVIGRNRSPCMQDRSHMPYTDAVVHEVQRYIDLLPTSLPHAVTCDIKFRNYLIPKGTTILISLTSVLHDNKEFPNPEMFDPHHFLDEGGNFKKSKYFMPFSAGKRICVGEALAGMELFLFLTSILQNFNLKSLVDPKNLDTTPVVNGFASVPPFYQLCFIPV
Protocol: A metabolic reaction was initiated by adding and mixing a test compound solution (final concentration 0.01 mmol/L) and a NADH/NADPH solution (final concentration 1 mmol/L) to a human liver microsome solution containing three CYP-specific substrates (final concentration 100 mmol/L potassium phosphate buffer solution (pH 7.4), 5 mmol/L magnesium chloride, 0.1 mg/mL human liver microsome, 0.005 mmol/L diclofenac (for CYP2C9), 0.01 mmol/L bufuralol (for […]), 0.005 mmol/L midazolam (for CYP3A4)). As an internal standard solution, a solution of each of stable isotopes of the metabolites (50 ng/mL [13C6] hydroxy diclofenac, 5 ng/mL [2H9] hydroxy bufuralol, and 5 ng/mL [13C6] hydroxy midazolam (all stable isotopes)) in methanol was prepared and used as a quenching solution.
Specifically, a metabolic reaction was initiated by adding and mixing 2 μL of a solution of a test compound in acetonitrile (or acetonitrile as a control) to 178 μL of a human liver microsome solution in ice water, followed by preincubation at 37° C. for 1 minute, and then adding 20 μL of a NADH/NADPH solution thereto. After incubation at 37° C. for 10 minutes, 50 μL of the reaction mixture was taken, and then it was added and mixed to 500 μL of a quenching solution to quech the reaction. The mixture was centrifuged (6130 g, 4° C., 10 minutes) and the supernatant was used as a sample for LC-MS/MS.
Peak area ratio ([peak area of metabolite]/[peak area of corresponding stable isotope]) was calculated for a metabolite and a stable isotope of the metabolite as measurement object. By comparing the peak area ratio of each test compound solution with that of the control, the inhibition rate (%) of each CYP species for each test compound was calculated from (1-[peak area ratio of each test compound solution]/[peak area ratio of control])×100.

T1 sequence (P31652 whole entry): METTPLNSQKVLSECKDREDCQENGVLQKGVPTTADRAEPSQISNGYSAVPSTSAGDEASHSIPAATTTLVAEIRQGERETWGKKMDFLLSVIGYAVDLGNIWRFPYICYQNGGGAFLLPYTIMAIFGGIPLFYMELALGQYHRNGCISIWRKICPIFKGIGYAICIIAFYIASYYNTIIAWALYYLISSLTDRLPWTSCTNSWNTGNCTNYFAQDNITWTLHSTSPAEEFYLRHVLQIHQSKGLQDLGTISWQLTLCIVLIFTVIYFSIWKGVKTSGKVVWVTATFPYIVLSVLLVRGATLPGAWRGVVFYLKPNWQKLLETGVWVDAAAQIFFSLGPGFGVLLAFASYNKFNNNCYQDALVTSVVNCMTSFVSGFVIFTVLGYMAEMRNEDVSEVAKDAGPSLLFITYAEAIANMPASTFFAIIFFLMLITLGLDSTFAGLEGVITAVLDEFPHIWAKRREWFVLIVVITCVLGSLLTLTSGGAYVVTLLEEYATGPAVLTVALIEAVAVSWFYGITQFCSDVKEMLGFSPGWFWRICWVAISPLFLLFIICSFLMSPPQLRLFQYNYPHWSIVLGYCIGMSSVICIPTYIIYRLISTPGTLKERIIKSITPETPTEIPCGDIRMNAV

| SMILES | IC50 (serotonin (5-HT) uptake) | IC50 (dopamine (DA) uptake) | inhibition at 10 min, 0.01 mmol/L (CYP2C9) |
| --- | --- | --- | --- |
| CC1(C)CN(c2cc(F)c(OC(F)(F)CO)cc2F)[C@H]2CCCC[C@H]2N1 [Example 71] | 57 nM | 81.4 nM | 0.6% |
| CC1(C)CN(c2cc(F)c(OCCO)cc2F)[C@H]2CCCC[C@H]2N1 [Example 72] | 55.4 nM | 241 nM | 1.7% |
| CC1(C)CN(c2ccc(OC(F)(F)CO)c(F)c2F)[C@H]2CCCC[C@H]2N1 [Example 73] | 8.7 nM | 68.7 nM | 4.8% |
| CC1(C)CN(c2cc(Cl)c(OC(F)(F)CO)cc2F)[C@H]2CCCC[C@@H]2N1 [Example 75] | 9.4 nM | 35.3 nM | 9.1% |
| CC1(C)CN(c2cc(Cl)c(OC(F)(F)CO)cc2F)[C@@H]2CCCC[C@H]2N1 [Example 76] | 98.3 nM | 60.5 nM | 12.6% |

Now from value to compound:

| IC50 (serotonin (5-HT) uptake) | IC50 (dopamine (DA) uptake) | inhibition at 10 min, 0.01 mmol/L (CYP2C9) | SMILES |
| --- | --- | --- | --- |
| 42.3 nM | 205 nM | 7.9% | CC1(C)CN(c2cc(F)c(OC(F)(F)CO)cc2F)[C@H]2CCCC[C@@H]2N1 [Example 77] |
| 37.3 nM | 224 nM | 8.9% | Cc1c(OC(F)(F)CO)ccc(N2CC(C)(C)N[C@H]3CCCC[C@@H]32)c1F [Example 79] |
| 62.8 nM | 90 nM | 2% | CC1(C)CN(c2ccc(OC(F)(F)CO)c(Cl)c2F)[C@@H]2CCCC[C@H]2N1 [Example 80] |
